# Experimental data taken from publication PMC11032351, “Epigenetic modulation through BET bromodomain inhibitors as a novel therapeutic strategy for progranulin-deficient frontotemporal dementia” (Scientific Reports, 2024).
# Experiments:
# lysosomal genes = assay: RNA sequencing of human dermal fibroblasts, lysosomal genes; format: cell-based; details: 24 h
# Protocol: Non-immortalized HDF cells (UCSF Memory and Aging Center, FTD25(X)) were cultured in high glucose DMEM with 10% FBS with supplemented L-glutamine and Pen/Strep, and grown in 100 mm plates for treatment. Cells were treated with DMSO or 1 μM mivebresib (1% DMSO) for 24 h. Trizol (Invitrogen) was used to isolate total cellular RNA, according to the manufacturer's protocol. RNA concentrations were assessed using a NanoDrop spectrophotometer (Thermo Scientific) and samples were diluted to 100 ng/10 μL in nuclease-free water (Ambion). 5 μg of each RNA sample was submitted for processing. Gene set enrichment analysis for lysosomal genes (list from Sardiello et al. 2009, Table S1) was performed using GSEA Desktop v3.0, with the following input parameters: number of permutations: 1000, scoring scheme: weighted, normalization mode: […], ranking metric: Signal2Noise, sorting: real[42]-[44]. […] Input queried against “Literature” library.
# recombinant BRD4 BD1 = biological target: recombinant BRD4 BD1; design: method as in PMID 31969702, PMID 32193360, doi:10.1002/anse.202200020; details: read-out: KD against recombinant BRD4 BD1; cited from earlier work
# PGRN protein levels [1] = assay: PGRN quantification (Jess) in GRN R493X/+ NPCs; format: cell-based, human; details: 24 h
# Protocol: (§1) PGRN capillary gel electrophoresis experiments were performed using Jess (Bio-Techne) and data were processed and analyzed using Compass for Simple Western software (version 6.0). Runs were conducted using EZ Standard Pack 1 12–230 kDa (Bio-Techne PS-ST01EZ-8), 12–230 kDa pre-filled plates (PS-PP03), 12–230 kDa separation module (SMW004), anti-rabbit HRP detection (DM-001), RePlex (RP-001), and total protein detection modules (DM-TP01, biotin labeling reagent 042-973) according to the manufacturer’s instructions, and with anti-PGRN primary (Abcam ab208777) diluted 1:50 in milk-free antibody dilution buffer (043–524). The following run settings were used for each experiment: separation time: 25 min, separation voltage: 375 V, RePlex purge time: 30 min, biotin labeling time: 30 min, antibody diluent time: 5 min, primary antibody time: 30 min, secondary antibody time: 30 min, total protein HRP time: 30 min. All intensity quantifications are normalized to the total protein assay quantification unless otherwise indicated.
# (§2) For GRN^R493^X/+ NPCs, cells were grown to confluency in 6-well plates according to the above NPC culturing procedure. To each well was directly added 2 µL of 100 µM panobinostat, […], or DMSO only to produce final in-well concentrations of 100 nM or 1 µM, respectively (0.1% DMSO final concentration). […]
# PGRN protein levels [2] = assay: PGRN quantification (Jess) in GRN R493X/+ 14-day differentiated neurons; format: cell-based, human; details: GRN R493X/+ 14-day growth factor differentiated neurons, 24 h
# Protocol: as §1, §2
compound,measurement,setting,value
CCS(=O)(=O)Nc1ccc(Oc2ccc(F)cc2F)c(-c2cn(C)c(=O)c3[nH]ccc23)c1 [mivebresib],lysosomal genes significantly upregulated,"lysosomal genes; 1 µM, pre-defined list of lysosomal genes",68/89
same,Log2(fold-change) ABCA2,"lysosomal genes; gene ABCA2, 1 µM, vs DMSO",0.969
same,Log2(fold-change) ABCB9,"lysosomal genes; gene ABCB9, 1 µM, vs DMSO",0.753
same,Log2(fold-change) ACP2,"lysosomal genes; gene ACP2, 1 µM, vs DMSO",0.071
same,Log2(fold-change) ACP5,"lysosomal genes; gene ACP5, 1 µM, vs DMSO",1.631
same,Log2(fold-change) AGA,"lysosomal genes; gene AGA, 1 µM, vs DMSO",1.111
same,Log2(fold-change) ARSA,"lysosomal genes; gene ARSA, 1 µM, vs DMSO",0.958
same,Log2(fold-change) ARSB,"lysosomal genes; gene ARSB, 1 µM, vs DMSO",0.697
same,Log2(fold-change) ARSG,"lysosomal genes; gene ARSG, 1 µM, vs DMSO",0.426
same,Log2(fold-change) ASAH1,"lysosomal genes; gene ASAH1, 1 µM, vs DMSO",1.724
same,Log2(fold-change) CD63,"lysosomal genes; gene CD63, 1 µM, vs DMSO",0.465
same,Log2(fold-change) CD68,"lysosomal genes; gene CD68, 1 µM, vs DMSO",0.237
same,Log2(fold-change) CLCN7,"lysosomal genes; gene CLCN7, 1 µM, vs DMSO",1.349
same,Log2(fold-change) CLN3,"lysosomal genes; gene CLN3, 1 µM, vs DMSO",-0.112
same,Log2(fold-change) CLN5,"lysosomal genes; gene CLN5, 1 µM, vs DMSO",0.974
same,Log2(fold-change) CPVL,"lysosomal genes; gene CPVL, 1 µM, vs DMSO",4.550
same,Log2(fold-change) CREG1,"lysosomal genes; gene CREG1, 1 µM, vs DMSO",1.959
same,Log2(fold-change) CTBS,"lysosomal genes; gene CTBS, 1 µM, vs DMSO",-0.006
same,Log2(fold-change) CTNS,"lysosomal genes; gene CTNS, 1 µM, vs DMSO",1.077
same,Log2(fold-change) CTSA,"lysosomal genes; gene CTSA, 1 µM, vs DMSO",1.344
same,Log2(fold-change) CTSB,"lysosomal genes; gene CTSB, 1 µM, vs DMSO",0.947
same,Log2(fold-change) CTSC,"lysosomal genes; gene CTSC, 1 µM, vs DMSO",0.179
same,Log2(fold-change) CTSD,"lysosomal genes; gene CTSD, 1 µM, vs DMSO",1.383
same,Log2(fold-change) CTSF,"lysosomal genes; gene CTSF, 1 µM, vs DMSO",1.580
same,Log2(fold-change) CTSH,"lysosomal genes; gene CTSH, 1 µM, vs DMSO",2.652
same,Log2(fold-change) CTSK,"lysosomal genes; gene CTSK, 1 µM, vs DMSO",2.602
same,Log2(fold-change) CTSS,"lysosomal genes; gene CTSS, 1 µM, vs DMSO",1.574
same,Log2(fold-change) CTSZ,"lysosomal genes; gene CTSZ, 1 µM, vs DMSO",0.095
same,Log2(fold-change) DNASE2,"lysosomal genes; gene DNASE2, 1 µM, vs DMSO",0.759
same,Log2(fold-change) ENTPD4,"lysosomal genes; gene ENTPD4, 1 µM, vs DMSO",-0.066
same,Log2(fold-change) EPDR1,"lysosomal genes; gene EPDR1, 1 µM, vs DMSO",0.350
same,Log2(fold-change) FUCA1,"lysosomal genes; gene FUCA1, 1 µM, vs DMSO",2.294
same,Log2(fold-change) GAA,"lysosomal genes; gene GAA, 1 µM, vs DMSO",1.285
same,Log2(fold-change) GALC,"lysosomal genes; gene GALC, 1 µM, vs DMSO",0.272
same,Log2(fold-change) GALNS,"lysosomal genes; gene GALNS, 1 µM, vs DMSO",0.664
same,Log2(fold-change) GBA,"lysosomal genes; gene GBA, 1 µM, vs DMSO",0.975
same,Log2(fold-change) GGH,"lysosomal genes; gene GGH, 1 µM, vs DMSO",-0.787
same,Log2(fold-change) GLA,"lysosomal genes; gene GLA, 1 µM, vs DMSO",0.381
same,Log2(fold-change) GLB1,"lysosomal genes; gene GLB1, 1 µM, vs DMSO",0.633
same,Log2(fold-change) GM2A,"lysosomal genes; gene GM2A, 1 µM, vs DMSO",0.722
same,Log2(fold-change) GNS,"lysosomal genes; gene GNS, 1 µM, vs DMSO",1.166
same,Log2(fold-change) GUSB,"lysosomal genes; gene GUSB, 1 µM, vs DMSO",-0.134
same,Log2(fold-change) HEXA,"lysosomal genes; gene HEXA, 1 µM, vs DMSO",1.135
same,Log2(fold-change) HEXB,"lysosomal genes; gene HEXB, 1 µM, vs DMSO",1.117
same,Log2(fold-change) HGSNAT,"lysosomal genes; gene HGSNAT, 1 µM, vs DMSO",0.896
same,Log2(fold-change) HPSE,"lysosomal genes; gene HPSE, 1 µM, vs DMSO",1.426
same,Log2(fold-change) HYAL1,"lysosomal genes; gene HYAL1, 1 µM, vs DMSO",0.217
same,Log2(fold-change) HYAL2,"lysosomal genes; gene HYAL2, 1 µM, vs DMSO",-0.168
same,Log2(fold-change) IDS,"lysosomal genes; gene IDS, 1 µM, vs DMSO",1.156
same,Log2(fold-change) IDUA,"lysosomal genes; gene IDUA, 1 µM, vs DMSO",1.057
same,Log2(fold-change) IFI30,"lysosomal genes; gene IFI30, 1 µM, vs DMSO",1.145
same,Log2(fold-change) LAMP1,"lysosomal genes; gene LAMP1, 1 µM, vs DMSO",1.227
same,Log2(fold-change) LAMP2,"lysosomal genes; gene LAMP2, 1 µM, vs DMSO",1.082
same,Log2(fold-change) LAPTM4A,"lysosomal genes; gene LAPTM4A, 1 µM, vs DMSO",0.460
same,Log2(fold-change) LAPTM5,"lysosomal genes; gene LAPTM5, 1 µM, vs DMSO",0.199
same,Log2(fold-change) LGMN,"lysosomal genes; gene LGMN, 1 µM, vs DMSO",1.455
same,Log2(fold-change) LIPA,"lysosomal genes; gene LIPA, 1 µM, vs DMSO",0.574
same,Log2(fold-change) LITAF,"lysosomal genes; gene LITAF, 1 µM, vs DMSO",1.022
same,Log2(fold-change) LMBRD1,"lysosomal genes; gene LMBRD1, 1 µM, vs DMSO",0.119
same,Log2(fold-change) MAN2B1,"lysosomal genes; gene MAN2B1, 1 µM, vs DMSO",0.586
same,Log2(fold-change) MAN2B2,"lysosomal genes; gene MAN2B2, 1 µM, vs DMSO",0.870
same,Log2(fold-change) MANBA,"lysosomal genes; gene MANBA, 1 µM, vs DMSO",1.687
same,Log2(fold-change) MCOLN1,"lysosomal genes; gene MCOLN1, 1 µM, vs DMSO",2.564
same,Log2(fold-change) MFSD8,"lysosomal genes; gene MFSD8, 1 µM, vs DMSO",-0.317
same,Log2(fold-change) MPO,"lysosomal genes; gene MPO, 1 µM, vs DMSO",1.298
same,Log2(fold-change) NAAA,"lysosomal genes; gene NAAA, 1 µM, vs DMSO",0.334
same,Log2(fold-change) NAGA,"lysosomal genes; gene NAGA, 1 µM, vs DMSO",0.034
same,Log2(fold-change) NAGLU,"lysosomal genes; gene NAGLU, 1 µM, vs DMSO",0.982
same,Log2(fold-change) NCSTN,"lysosomal genes; gene NCSTN, 1 µM, vs DMSO",0.166
same,Log2(fold-change) NEU1,"lysosomal genes; gene NEU1, 1 µM, vs DMSO",2.366
same,Log2(fold-change) NEU4,"lysosomal genes; gene NEU4, 1 µM, vs DMSO",1.289
same,Log2(fold-change) NPC1,"lysosomal genes; gene NPC1, 1 µM, vs DMSO",1.530
same,Log2(fold-change) NPC2,"lysosomal genes; gene NPC2, 1 µM, vs DMSO",1.822
same,Log2(fold-change) OSTM1,"lysosomal genes; gene OSTM1, 1 µM, vs DMSO",1.559
same,Log2(fold-change) PCYOX1,"lysosomal genes; gene PCYOX1, 1 µM, vs DMSO",0.963
same,Log2(fold-change) PPT1,"lysosomal genes; gene PPT1, 1 µM, vs DMSO",-0.819
same,Log2(fold-change) PPT2,"lysosomal genes; gene PPT2, 1 µM, vs DMSO",-0.987
same,Log2(fold-change) PSAP,"lysosomal genes; gene PSAP, 1 µM, vs DMSO",1.511
same,Log2(fold-change) RNASET2,"lysosomal genes; gene RNASET2, 1 µM, vs DMSO",1.008
same,Log2(fold-change) SCARB2,"lysosomal genes; gene SCARB2, 1 µM, vs DMSO",0.201
same,Log2(fold-change) SCPEP1,"lysosomal genes; gene SCPEP1, 1 µM, vs DMSO",1.441
same,Log2(fold-change) SGSH,"lysosomal genes; gene SGSH, 1 µM, vs DMSO",0.983
same,Log2(fold-change) SIAE,"lysosomal genes; gene SIAE, 1 µM, vs DMSO",0.365
same,Log2(fold-change) SLC17A5,"lysosomal genes; gene SLC17A5, 1 µM, vs DMSO",1.220
same,Log2(fold-change) SLC36A1,"lysosomal genes; gene SLC36A1, 1 µM, vs DMSO",0.968
same,Log2(fold-change) SMPD1,"lysosomal genes; gene SMPD1, 1 µM, vs DMSO",0.723
same,Log2(fold-change) TMEM74,"lysosomal genes; gene TMEM74, 1 µM, vs DMSO",2.173
same,Log2(fold-change) TMEM92,"lysosomal genes; gene TMEM92, 1 µM, vs DMSO",-1.444
same,Log2(fold-change) TPP1,"lysosomal genes; gene TPP1, 1 µM, vs DMSO",1.361
same,Kd,recombinant BRD4 BD1,≤ 2.8 nM
same,PGRN protein levels,PGRN protein levels [1],significantly increased PGRN protein levels
same,PGRN protein levels,PGRN protein levels [2],significantly increased PGRN protein levels
